Test results from publication PMC5829263, “Homoarginine and inhibition of human arginase activity: kinetic characterization and biological relevance” (Scientific Reports, 2018).
Entries after “also recorded” stand apart in the source; their conditions may differ. Like-named read-outs stand apart in the source and are kept apart here.

Key:
[1] = target: T1, recombinant human arginase 1 (Homo sapiens, UniProt P05089); test: Arginase 1 inhibition, UPLC-MS measurement of ARG to ORN conversion in HEK293T cell lysate; settings: for % of control activity at the corresponding [Inhibitor] ± SE: arginase 1; for % of control activity at the corresponding [Inhibitor] ± SE / remaining activity at 1 µM / remaining activity at 10 µM / remaining activity at 100 µM / remaining activity at 1000 µM / remaining activity at 10000 µM / remaining activity at 0.1 µM: mean of two experiments; for arginase 1 inhibitor assessment in words: at the concentrations tested, both ARG concentrations; for remaining activity at 1 µM / remaining activity at 10 µM / remaining activity at 100 µM / remaining activity at 1000 µM / remaining activity at 10000 µM / remaining activity at 0.1 µM: read-out: % of control activity at the corresponding [Inhibitor] ± SE, arginase 1; for remaining activity at 10000 µM: inhibitor 10,000 µM;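 for all read-outs here: arginase 1–expressing HEK293T lysate at 0.05 mg/mL in pH 7.4 phosphate buffer, inhibitor preincubated 5 min with enzyme, then reaction started by adding ARG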
T1 sequence (P05089 1-322): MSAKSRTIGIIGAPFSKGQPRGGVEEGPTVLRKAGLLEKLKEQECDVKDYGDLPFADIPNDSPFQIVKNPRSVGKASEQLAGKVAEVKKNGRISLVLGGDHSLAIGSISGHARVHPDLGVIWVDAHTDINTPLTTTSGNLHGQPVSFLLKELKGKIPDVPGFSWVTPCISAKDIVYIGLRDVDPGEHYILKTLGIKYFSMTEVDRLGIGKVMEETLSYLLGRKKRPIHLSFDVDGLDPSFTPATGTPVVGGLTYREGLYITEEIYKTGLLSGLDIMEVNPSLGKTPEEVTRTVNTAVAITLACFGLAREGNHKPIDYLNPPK
Experimental: (§1) Following a 5-min pre-equilibration period reactions were initiated by the addition of the cell lysate solution in 0.05 M phosphate buffer to a pre-equilibrated aqueous solution of the substrate (ARG).
(§2) The samples were vortex mixed (20 sec) and cooled in an ice/water bath for 10 min prior to centrifugation (5 min, 18,000 × g, room temperature) to precipitate the proteins. An aliquot of the supernatant layer was diluted with a 7:3 mobile phase A/mobile phase B solution into glass UPLC vial inserts.
(§3) Incubation mixtures comprised of HEK293T cell lysate expressing arginase 1 (0.05 mg/mL) or arginase 2 (0.1 mg/mL), phosphate buffer (0.05 M, pH 7.4), inhibitor (0, 0.1, 1, 10, 100, 1000 or 10000 μM) and ARG (0.1, 2 or 3 mM). Following a 5-min pre-incubation of the potential inhibitor with arginase 1 or arginase 2, reactions were initiated by the addition of a pre-equilibrated solution of the substrate ARG.
Ki values were derived from fitting the competitive inhibition equation to experimental data. Ki data are the mean of three singlicate experiments.

[2] = target: T2, recombinant human arginase 2 (Homo sapiens, UniProt P78540); test: Arginase 2 inhibition, UPLC-MS measurement of ARG to ORN conversion in HEK293T cell lysate; settings: for % of control activity at the corresponding [Inhibitor] ± SE: arginase 2; for % of control activity at the corresponding [Inhibitor] ± SE / remaining activity at 1 µM / remaining activity at 10 µM / remaining activity at 100 µM / remaining activity at 1000 µM / remaining activity at 10000 µM / remaining activity at 0.1 µM: mean of two experiments; for arginase 2 inhibitor assessment in words: at the concentrations tested; for remaining activity at 1 µM / remaining activity at 10 µM / remaining activity at 100 µM / remaining activity at 1000 µM / remaining activity at 10000 µM / remaining activity at 0.1 µM: read-out: % of control activity at the corresponding [Inhibitor] ± SE, arginase 2; for remaining activity at 10000 µM: inhibitor 10,000 µM;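 for all read-outs here: HEK293T lysate carrying arginase 2 at 0.1 mg/mL in 0.05 M phosphate buffer pH 7.4, inhibitor preincubated with enzyme 5 min before ARG addition started the reaction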
T2 sequence (P78540 23-354): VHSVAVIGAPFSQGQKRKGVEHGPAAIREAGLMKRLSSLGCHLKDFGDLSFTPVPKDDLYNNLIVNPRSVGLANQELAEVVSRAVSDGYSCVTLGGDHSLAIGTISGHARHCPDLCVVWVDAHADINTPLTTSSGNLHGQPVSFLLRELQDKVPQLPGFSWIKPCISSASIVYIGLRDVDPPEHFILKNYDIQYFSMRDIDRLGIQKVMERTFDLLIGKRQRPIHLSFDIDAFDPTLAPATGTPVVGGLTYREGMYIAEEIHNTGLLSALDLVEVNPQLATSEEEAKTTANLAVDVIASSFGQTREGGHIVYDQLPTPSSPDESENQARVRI
Experimental: as §1, §2, §3
Sample were diluted 3:17 in mobile phase solution prior injection.

| Compound | arginase 1 inhibitor assessment in words [1] | arginase 2 inhibitor assessment in words [2] | remaining activity at 1 µM ([1]; ARG 100 µM, inhibitor 1 µM) [%] | remaining activity at 10 µM ([1]; ARG 100 µM, inhibitor 10 µM) [%] | remaining activity at 100 µM ([1]; ARG 100 µM, inhibitor 100 µM) [%] | remaining activity at 1000 µM ([1]; ARG 100 µM, inhibitor 1,000 µM) [%] | remaining activity at 1 µM ([1]; ARG 3 mM, inhibitor 1 µM) [%] | remaining activity at 10 µM ([1]; ARG 3 mM, inhibitor 10 µM) [%] | remaining activity at 100 µM ([1]; ARG 3 mM, inhibitor 100 µM) [%] | remaining activity at 1000 µM ([1]; ARG 3 mM, inhibitor 1,000 µM) [%] | remaining activity at 1 µM ([2]; ARG 100 µM, inhibitor 1 µM) [%] | remaining activity at 10 µM ([2]; ARG 100 µM, inhibitor 10 µM) [%] | remaining activity at 100 µM ([2]; ARG 100 µM, inhibitor 100 µM) [%] | remaining activity at 1000 µM ([2]; ARG 100 µM, inhibitor 1,000 µM) [%] | remaining activity at 1 µM ([2]; ARG 2 mM, inhibitor 1 µM) [%] | remaining activity at 10 µM ([2]; ARG 2 mM, inhibitor 10 µM) [%] | remaining activity at 100 µM ([2]; ARG 2 mM, inhibitor 100 µM) [%] | remaining activity at 1000 µM ([2]; ARG 2 mM, inhibitor 1,000 µM) [%] | also measured |
| --- | --- | --- | --- | --- | --- | --- | --- | --- | --- | --- | --- | --- | --- | --- | --- | --- | --- | --- | --- |
| CN(C)C(N)=NCCC[C@H](N)C(=O)O [ADMA, asymmetric dimethylarginine] | poor arginase 1 inhibitors | poor arginase inhibitors |  |  |  |  |  |  |  |  |  |  |  |  |  |  |  |  | % of control activity at the corresponding [Inhibitor] ± SE ([1]; ARG 100 µM, inhibitor 0.1 µM): 102 ± 9%; % of control activity at the corresponding [Inhibitor] ± SE ([1]; ARG 100 µM, inhibitor 1 µM): 109 ± 4%; % of control activity at the corresponding [Inhibitor] ± SE ([1]; ARG 100 µM, inhibitor 10 µM): 120 ± 12%; % of control activity at the corresponding [Inhibitor] ± SE ([1]; ARG 100 µM, inhibitor 100 µM): 109 ± 8%; % of control activity at the corresponding [Inhibitor] ± SE ([1]; ARG 100 µM, inhibitor 1,000 µM): 87 ± 1%; % of control activity at the corresponding [Inhibitor] ± SE ([1]; ARG 3 mM, inhibitor 0.1 µM): 98 ± 7%; % of control activity at the corresponding [Inhibitor] ± SE ([1]; ARG 3 mM, inhibitor 1 µM): 89 ± 2%; % of control activity at the corresponding [Inhibitor] ± SE ([1]; ARG 3 mM, inhibitor 10 µM): 90 ± 1%; % of control activity at the corresponding [Inhibitor] ± SE ([1]; ARG 3 mM, inhibitor 100 µM): 86 ± 4%; % of control activity at the corresponding [Inhibitor] ± SE ([1]; ARG 3 mM, inhibitor 1,000 µM): 69 ± 4%; % of control activity at the corresponding [Inhibitor] ± SE ([2]; ARG 100 µM, inhibitor 0.1 µM): 115 ± 7%; % of control activity at the corresponding [Inhibitor] ± SE ([2]; ARG 100 µM, inhibitor 1 µM): 112 ± 13%; % of control activity at the corresponding [Inhibitor] ± SE ([2]; ARG 100 µM, inhibitor 10 µM): 109 ± 9%; % of control activity at the corresponding [Inhibitor] ± SE ([2]; ARG 100 µM, inhibitor 100 µM): 94 ± 14%; % of control activity at the corresponding [Inhibitor] ± SE ([2]; ARG 100 µM, inhibitor 1,000 µM): 104 ± 3%; % of control activity at the corresponding [Inhibitor] ± SE ([2]; ARG 2 mM, inhibitor 0.1 µM): 80 ± 7%; % of control activity at the corresponding [Inhibitor] ± SE ([2]; ARG 2 mM, inhibitor 1 µM): 84 ± 12%; % of control activity at the corresponding [Inhibitor] ± SE ([2]; ARG 2 mM, inhibitor 10 µM): 92 ± 12%; % of control activity at the corresponding [Inhibitor] ± SE ([2]; ARG 2 mM, inhibitor 100 µM): 90 ± 14%; % of control activity at the corresponding [Inhibitor] ± SE ([2]; ARG 2 mM, inhibitor 1,000 µM): 87 ± 15% |
| NCCCCN=C(N)N [AG, agmatine] | poor arginase 1 inhibitors; also recorded: no significant inhibition | poor inhibitors; also recorded: no significant inhibition | 94 ± 7 | 82 ± 5 | 110 ± 24 | 84 ± 8 | 84 ± 13 | 100 ± 3 | 100 ± 8 | 98 ± 13 | 103 ± 4 | 98 ± 7 | 92 ± 6 | 78 ± 5 | 104 ± 4 | 96 ± 3 | 103 ± 3 | 96 ± 3 | remaining activity at 10000 µM ([1]; ARG 100 µM): 72 ± 3%; remaining activity at 10000 µM ([1]; ARG 3 mM): 78 ± 7%; remaining activity at 10000 µM ([2]; ARG 100 µM): 58 ± 1%; remaining activity at 10000 µM ([2]; ARG 2 mM): 87 ± 8% |
| [H]/N=C(/NC)NCCC[C@H](N)C(=O)O [L-NMMA, NG-Monomethyl-L-arginine] |  |  | 91 ± 6 | 104 ± 11 | 95 ± 6 | 116 ± 1 | 107 ± 11 | 95 ± 9 | 94 ± 8 | 97 ± 11 | 103 ± 2 | 106 ± 1 | 106 ± 9 | 111 ± 4 | 105 ± 4 | 109 ± 8 | 104 ± 3 | 118 ± 4 | remaining activity at 0.1 µM ([1]; ARG 100 µM, inhibitor 0.1 µM): 95 ± 2%; remaining activity at 0.1 µM ([1]; ARG 3 mM, inhibitor 0.1 µM): 106 ± 15%; remaining activity at 0.1 µM ([2]; ARG 100 µM, inhibitor 0.1 µM): 101 ± 1%; remaining activity at 0.1 µM ([2]; ARG 2 mM, inhibitor 0.1 µM): 96 ± 7% |
